# From US20250129101A1, “Compound, Pharmaceutical Composition Comprising the Same and Method for Treating Cancer Using the Same” (NATIONAL TSING HUA UNIVERSITY, priority 2023, published 2025)
# Assays:
# MDA-MB-231 cells = test: Cell validation: cytotoxicity in MDA-MB-231 cells (CellTiter-Glo); assay type: cell-based
# How it was run: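 MDA-MB-231 cells were seeded at 2000 cells/well and exposed to compounds for the specified number of days. Medium was then replaced with a 1:1 CellTiter-Glo reagent/serum-supplemented DMEM mix for 10 min, and viability was read as luminescence, proportional to living cell number.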
# [1] = test system: MDA-MB-231 R, MDA-MB-231 S, 4T1 S1, R4, and R8 cells; test: Cell viability of indicated cell lines, DHTP or 7S9 for 72 hr; assay type: cell-based; conditions: Homo sapiens, range over MDA-MB-231 R, read-out: cytotoxicity IC50 values
# Protocol: The cancer cells were cultured in a 96-well plate at a confluence of 1000-2000 cells/well with indicated drugs for specific days. When the time was up, the culture medium in the plate was aspirated and replaced with a prepared CellTiter-Glo reagent/DMEM mixture (1:1 mix of CellTiter-Glo reagent and serum-supplemented DMEM). After incubation for 10 min, the luminescence (proportional to the number of living cells) was measured with an ELISA plate reader to determine the cell viability.
# KIF2C = target: T1, KIF2C (Homo sapiens, UniProt Q99661); test: In vitro microtubule depolymerization assay; assay type: biochemical; conditions: 50 μM 7S9, recombinant KIF2C and ATP, 30 min
# T1 construct: KIF2C (216-598 a.a.); 6xHis (C); made in house; host or cells: E. coli BL21 (DE3), pET-28a
# Protocol: Additional purified KIF2C (0.5 ng/μl), ATP (0.75 mM), and 7S9 (50 μM) were included in a typical 10 μL reaction, as indicated, loaded onto a p-Slide (Ibidi, 81506) and incubated at 37° C. for 30 min. Images were acquired using the Leica DMI6000 microscope with an HCX PL FL 20×/0.4 and Andor Neo sCMOS camera, which were all processed by MetaMorph software (Molecular Devices, LLC. San Jose, CA, USA).
# KIF2C and tubulin = target: T2, KIF2C and tubulin (Homo sapiens, UniProt Q99661); test: KIF2C-tubulin affinity pull-down assay; assay type: binding
# T2 construct: KIF2C (216-598 a.a.); made in house; host or cells: E. coli BL21 (DE3), pET-28a (KIF2C); tubulin from porcine brain (Cytoskeleton) or HEK293 cells
# Protocol: The mixture was subjected to KIF2C pull-down with 50 μL of pre-equilibrated Ni-NTA resin. Residual tubulin that remained interacting with KIF2C was resolved by SDS-PAGE followed by Coomassie brilliant blue staining or western blotting.
# 4T1 S1 cells = test: Colony formation assay, 4T1 S1 cells; assay type: cell-based, mouse; conditions: 1 μM 7S9 with 400 nM paclitaxel
# Protocol: (§1) To assess the long-term survival of breast cancer cell lines following the treatment of KIF2C knockdown or inhibition, the cells trypsinized into single-cell suspension were homogeneously seeded in 6-well cell culture plates at a density of 5000 cells per dish, supplemented with 2× complete medium (50% 4×DMEM, 20% FBS, 2% penicillin-streptomycin, ddH2O, and 2× glutaMAX™), agarose (0.6% for bottom agar layer; 0.3% for top cell layer), ddH2O, and DMEM. After incubation for 24 hr, cells were treated with indicated drugs, such as DMSO, KIF2C inhibitors, or chemotherapy drugs, and then cultured at 37° C. incubator in an atmosphere of humidified air with 5% CO2 for a further 14-30 days. When the cell colonies grew to appropriate sizes, the culture mediums were replaced with PBS for washing. After that, the plates were stained with 10% crystal violet and analyzed using Image J.
# 4T1 R8 cells [2] = test: Colony formation assay, 4T1 R8 cells; assay type: cell-based, mouse; conditions: 1 μM 7S9 with 400 nM paclitaxel
# Protocol: as §1
# 4T1 R4 cells = test: Time-lapse imaging of mitotic progression, 4T1 R4 cells; assay type: cell-based, mouse; conditions: 1 μM 7S9 and 400 nM paclitaxel
# Protocol: (§2) To investigate the role of KIF2C in cell cycle progression, 4T1 cells were cultured in the 4-well chamber slide with about 50% confluence. The culture medium was replaced with a CO2-independent medium (Gibco) supplemented with 10% fetal bovine serum (Biological Industries) and 1% penicillin-streptomycin (Biowest). Then, each well of the chamber slide was treated with indicated drugs, such as DMSO, KIF2C inhibitors, or chemotherapy drugs. After that, the chamber slide was maintained in the microscope stage incubator with the supplement of humidified air with 5% CO2 at 37° C. Multiple-positional time-lapse imaging was performed using an automated Leica DM16000 inverted microscope equipped with HCX PL FL 20×/0.4 and EMCCD camera (Andor Luca R, Belfast, UK). Sequential differential interference contrast (DIC) images of cells obtained at indicated intervals were further analyzed using Metamorph software (Molecular Devices).
# 4T1 R8 cells [3] = test: Time-lapse imaging of mitotic progression, 4T1 R8 cells; assay type: cell-based, mouse; conditions: 1 μM 7S9 and 400 nM paclitaxel
# Protocol: as §2
# 4T1 R8 = test: In vivo tumor growth inhibition, 4T1 R8 syngeneic model; set-up: species or system mouse; conditions: R8 tumors, BALB/c mice, 7S9 50 mg/kg with paclitaxel 15 mg/kg
# Protocol: The mice were housed at the National Health Research Institute (NHRI) Animal Center in accordance with the Institutional Animal Care and Use Committee procedures and guidelines. The 4T1-derived cells, including 4T1, 4T1 R4, and 4T1 R8, used for implantation were harvested during log phase growth and resuspended in phosphate-buffered saline. Each mouse was injected s.c. in the right flank with 5×10^5 cells. After tumor size reached 60-100 mm 3 (D1), mice were divided into groups and received treatment with vehicle or different compounds alone or in combinations. Tumor size, in mm 3, was measured twice per week and calculated from Tumor volume=(w 2×1)/2, where w=width and 1=length in mm of the tumor. The values of tumor size were expressed as mean±SEM.
# T1 sequence (Q99661 216-598): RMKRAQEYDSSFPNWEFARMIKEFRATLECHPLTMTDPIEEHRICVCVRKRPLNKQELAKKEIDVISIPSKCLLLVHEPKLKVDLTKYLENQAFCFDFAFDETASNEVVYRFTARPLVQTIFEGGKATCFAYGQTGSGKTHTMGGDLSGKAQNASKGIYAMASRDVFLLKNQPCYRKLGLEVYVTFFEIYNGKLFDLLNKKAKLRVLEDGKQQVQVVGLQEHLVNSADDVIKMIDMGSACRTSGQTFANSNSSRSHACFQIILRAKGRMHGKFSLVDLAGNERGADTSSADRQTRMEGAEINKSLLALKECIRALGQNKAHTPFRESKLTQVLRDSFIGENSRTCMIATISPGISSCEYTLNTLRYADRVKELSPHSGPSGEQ
# T2 sequence (Q99661 216-598): as above
compound,measurement,setting,value
"CCN1CCN(C(=O)COc2ccc(/C=c3\sc4n(c3=O)C(c3ccc(Cl)cc3)C(C(=O)OC(C)C)=C(C)N=4)cc2)CC1.O=C(O)/C=C\C(=O)O (stereo not shown) [7S9 (133), isopropyl (Z)-5-(4-chlorophenyl)-2-(4-(2-(4-ethylpiperazin-1-yl)-2-oxoethoxy)benzylidene)-7-methyl-3-oxo-2,3-dihydro-5H-thiazolo[3,2-a]pyrimidine-6-carboxylate maleate]",cytotoxicity on MDA-MB-231 cells (in words),MDA-MB-231 cells; 72 hr,showed cytotoxicity
same,Cell validation (IC50),MDA-MB-231 cells; cytotoxicity in MDA-MB-231 cells,+ + +
same,IC50,[1],4.9 to 8.6 µM
same,KIF2C-mediated microtubule depolymerization (in words),KIF2C,completely blocked
same,molecular interaction between KIF2C and tubulin (in words),KIF2C and tubulin,increased by 7S9 in a dose-dependent manner
same,"colony formation, combined treatment (in words)",4T1 S1 cells,did not further suppress colony formation
same,"colony formation, combined treatment (in words)",4T1 R8 cells [2],suppression of colony formation was detected only with combined treatment of 7S9 and paclitaxel
same,"mitotic defects, combined treatment (in words)",4T1 R4 cells,induced significant defects in mitosis
same,"mitotic defects, combined treatment (in words)",4T1 R8 cells [3],induced significant defects in mitosis
same,"tumor growth inhibition, combination",4T1 R8,66.2%
